Laboratory results from US6451353B1 (priority 1997, dated 2002).

Columns and labels:
Tumor = experiment: Tumor-inhibiting rates of extracts obtained with different solvents; type: in vivo, mice; conditions: 5-FU 10 mg/kg
Sarcoma 180 [1] = experiment: Inhibiting effect on mouse sarcoma 180; type: in vivo; conditions: ICR mice; 5-Fu 5 mg/kg/d i.p. × 12
Experimental: Healthy Kunming and ICR mice with a body weight of 18-22 g. each were obtained from the breeding center of Sichuan Institute of Antibiotic Industry, Chengdu, Sichuan Province, P. R. China. Both male and female mice were used in the experiment. Sarcoma 180 was obtained from the Division of Pharmacology, Sichuan Institute of Antibiotic Industry, Chengdu, Sichuan Province, P. R. China. […] The experiment was carried out in vivo according to “Procedures of in vivo Screening of Antineoplastic Drugs” established in P. R. China in 1978.

Lewis lung carcinoma = experiment: Inhibiting effect on Lewis lung carcinoma; type: in vivo, mice; conditions: Table 9; 5-Fu 5 mg/kg/d i.p. × 10
Experimental: Healthy C57BL/6N mice with a body weight of 18-22 g. each were obtained from the breeding center of Sichuan Institute of Antibiotic Industry, Chengdu, Sichuan Province, P. R. China. Both male and female mice were used in the experiment. Lewis lung carcinoma was obtained from the Division of Pharmacology, Sichuan Institute of Antibiotic Industry, Chengdu, Sichuan Province, P. R. China. […] The experiment was carried out in vivo according to “Procedures of in vivo Screening of Antineoplastic Drugs” established in P. R. China in 1978.

cervical carcinoma U14 = experiment: Inhibiting effect on mouse cervical carcinoma U14; type: in vivo; conditions: Table 13, ICR mice; 5-Fu 5 mg/kg/d i.p. × 9
Experimental: Healthy Kunming and ICR mice with a body weight of 18-22 g. each were obtained from the breeding center of Sichuan Institute of Antibiotic Industry, Chengdu, Sichuan Province, P. R. China. Both male and female mice were used in the experiment. Uterine carcinoma U14 was obtained from the Division of Pharmacology, Sichuan Institute of Antibiotic Industry, Chengdu, Sichuan Province, P. R. China. […] The experiment was carried out in vivo according to “Procedures of in vivo Screening of Antineoplastic Drugs” established in P. R. China in 1978.

Sarcoma 180 [2] = experiment: Combination with 5-fluorouracil and 60Co gamma rays on mouse sarcoma 180; type: in vivo; conditions: Kunming mice, Fagopyrum Composition 100 mg/kg p.o. × 10, 5-FU 5 mg/kg i.p. × 10, γ 300 rad × 1
Experimental: 60 Kunming mice were obtained from the breeding center of Chengdu Institute of Biological Products, the Ministry of Health, Chengdu, Sichuan Province, P. R. China.
Sarcoma 180 was obtained from the Division of Pharmacology, Sichuan Institute of Antibiotic Industry, Chengdu, Sichuan Province, P. R. China. The tumor line had been passed on several times in Kunming mice.
The drug was prepared by Nantong Pharmaceuticals, Nantong, Jiangsu Province, P. R. China.
Inoculation of tumor line and evaluation of therapeutic efficacy were performed according to “Procedures of in vivo Screening of Antineoplastic Drugs” established in P. R. China in 1978.
Sixty mice were divided into 6 groups, 10 mice for each group. Group 1 was the control group wherein the mice were treated only by saline. Groups 2 to 6 were treatment groups using different therapies. […] Group 3 was treated with 5-Fluorouracil. Group 4 was treated with ^60Co irradiation. […] Result of each group was then calculated and compared.

O=c1[nH]cc(F)c(=O)[nH]1 [5-FU, 5-Fluorouracil]
Tumor-inhibiting Rate (Tumor): 31.37%
Average Tumor Weight (x ± SD) (Sarcoma 180 [1]): 0.49 ± 0.25 g
Change in Mean Value of Body Weight (Sarcoma 180 [1]): +2.01 g
Tumor Inhibiting Rate (Sarcoma 180 [1]): 51.49%
Average Tumor Weight (x ± SD) (Lewis lung carcinoma): 0.74 ± 0.49 g
Change in Mean Value of Body Weight (Lewis lung carcinoma): +0.4 g
Tumor Inhibiting Rate (Lewis lung carcinoma): 52.26%
Average Tumor Weight (x ± SD) (cervical carcinoma U14): 1.27 ± 0.37 g
Change in Mean Value of Body Weight (cervical carcinoma U14): +3.93 g
Tumor Inhibiting Rate (cervical carcinoma U14): 35.53%
Tumor Inhibiting Rate (Sarcoma 180 [2]): 47.8%
Tumor Weight (Sarcoma 180 [2]; saline control 1.36): 0.71 g
